Experimental data from patent US20240246964A1 (Arbutus Biopharma Corporation, priority 2021, published 2024).

These compounds were tested against human PD-L1 (Homo sapiens (Human), UniProt Q9NZQ7) (assay: T cell activation luciferase reporter cell culture system (T Cell Activation Assay)). Conditions: luciferase reporter assay; PD-L1 aAPC/CHO-K1 cells with PD-1 effector Jurkat T cells.
Format: cell-based

Chain of human PD-L1 (Q9NZQ7 19-290): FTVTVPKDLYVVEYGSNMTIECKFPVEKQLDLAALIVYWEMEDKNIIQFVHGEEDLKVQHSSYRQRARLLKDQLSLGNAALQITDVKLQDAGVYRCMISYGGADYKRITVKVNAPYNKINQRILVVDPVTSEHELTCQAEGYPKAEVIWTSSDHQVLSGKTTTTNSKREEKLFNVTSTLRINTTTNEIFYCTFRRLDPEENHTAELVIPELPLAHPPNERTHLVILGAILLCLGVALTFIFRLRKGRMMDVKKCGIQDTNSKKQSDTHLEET

| SMILES | EC50 [µM] |
| --- | --- |
| COc1cc(-c2nccc(-c3cccc(-c4ccc(CNC(C)C)c(OC)n4)c3Cl)c2Cl)ccc1CNC(C)C [Example 514, N-((6-(2-Chloro-3-(3-chloro-2-(4-((isopropylamino)methyl)-3-methoxyphenyl)pyridin-4-yl)phenyl)-2-methoxypyridin-3-yl)methyl)propan-2-amine] | 0.0945 |
| COc1cc(-c2nccc(-c3cccc(-c4ccc5c(CNC6CCS(=O)(=O)CC6)cn(C)c5n4)c3Cl)c2Cl)ccc1CNC1CCN(C(C)=O)CC1 [Example 558, 1-(4-((4-(3-Chloro-4-(2-chloro-3-(3-(((1,1-dioxidotetrahydro-2H-thiopyran-4-yl)amino)methyl)-1-methyl-1H-pyrrolo[2,3-b]pyridin-6-yl)phenyl)pyridin-2-yl)-2-methoxybenzyl)amino)piperidin-1-yl)ethan-1-one] | ≥ 10 |
| COc1cc(-c2nccc(-c3cccc(NC(=O)c4ccc(CNCCO)cn4)c3C)c2Cl)ccc1CNC1CCN(C(C)=O)CC1 [Example 700, N-(3-(2-(4-(((1-Acetylpiperidin-4-yl)amino)methyl)-3-methoxyphenyl)-3-chloropyridin-4-yl)-2-methylphenyl)-5-(((2-hydroxyethyl)amino)methyl)picolinamide] | 0.124 |
| COc1nc(-c2cccc(-c3ccnc(-c4ccc5c(c4)CCC[C@H]5NC[C@@H]4CCC(=O)N4)c3Cl)c2Cl)ccc1CN[C@@H](CCO)C(=O)O [Example 265, ((6-(2-Chloro-3-(3-chloro-2-((R)-5-((((S)-5-oxopyrrolidin-2-yl)methyl)amino)-5,6,7,8-tetrahydronaphthalen-2-yl)pyridin-4-yl)phenyl)-2-methoxypyridin-3-yl)methyl)-L-homoserine] | 0.368 |
| COc1nc(-c2cccc(-c3ccnc(-c4ccc5c(c4)CCC[C@H]5NC[C@@H]4CCC(=O)N4)c3Cl)c2Cl)ccc1CN1CC2(CNC(=O)C2)C1 [Example 255, 2-((6-(2-chloro-3-(3-chloro-2-((R)-5-((((S)-5-oxopyrrolidin-2-yl)-methyl)-amino)-5,6,7,8-tetrahydronaphthalen-2-yl)pyridin-4-yl)phenyl)-2-methoxypyridin-3-yl)methyl)-2,6-diazaspiro[3.4]octan-7-one] | 0.305 |

These reach a lower EC50. Values come first.

| EC50 [µM] | SMILES |
| --- | --- |
| 0.0566 | COc1cc(-c2nccc(-c3cccc(-c4ccc(CNC5CCN(C(C)=O)CC5)c(OC)n4)c3Cl)c2Cl)ccc1CNCCC(=O)O [Example 390, 3-((4-(4-(3-(5-(((1-acetylpiperidin-4-yl)amino)methyl)-6-methoxypyridin-2-yl)-2-chlorophenyl)-3-chloropyridin-2-yl)-2-methoxybenzyl)amino)propanoic acid] |
| 0.0285 | COc1cc(-c2nccc(-c3cccc(-c4ccc(CNC5CCN(C(C)=O)CC5)c(OC)n4)c3Cl)c2Cl)ccc1CN1CCC[C@@H](O)C1 [Example 489, (R)-1-(4-(((6-(2-Chloro-3-(3-chloro-2-(4-((3-hydroxypiperidin-1-yl)methyl)-3-methoxyphenyl)pyridin-4-yl)phenyl)-2-methoxypyridin-3-yl)methyl)amino)piperidin-1-yl)ethan-1-one] |
| 0.0223 | COc1cc(-c2nccc(-c3cccc(-c4cnc(CNC[C@@H]5CCC(=O)N5)c(OC)n4)c3Cl)c2Cl)ccc1CNC[C@@H]1CCC(=O)N1 [Cmpd 20, (S)-5-((((5-(2-chloro-3-(3-chloro-2-(3-methoxy-4-(((((S)-5-oxopyrrolidin-2-yl)methyl)amino)methyl)phenyl)pyridin-4-yl)phenyl)-3-methoxypyrazin-2-yl)methyl)amino)methyl)pyrrolidin-2-one] |
| 0.0199 | COc1cc(-c2nccc(-c3cccc(-c4ccc(CNC5CC6(COC6)C5)c(OC)n4)c3Cl)c2Cl)ccc1CNC1CC2(COC2)C1 (stereo not drawn) [Example 365, N-(4-(4-(3-(5-(((2-Oxaspiro[3.3]heptan-6-yl)amino)methyl)-6-methoxypyridin-2-yl)-2-chlorophenyl)-3-chloropyridin-2-yl)-2-methoxybenzyl)-2-oxaspiro[3.3]heptan-6-amine] |
